From patent US9371335B2, “Spirothienopyran-piperidine derivatives as ORL-1 receptor antagonists for their use in the treatment of alcohol dependence and abuse” (Eli Lilly and Company, priority 2011, dated 2016) come the findings set out here.

Assay [1] relates to P rats. The assay can be described thus: Free-choice ethanol self-administration in P rats. Type of assay: in vivo, rat. The following applies: for Mean EtOH Consumed in g/kg (Drug-treated) / Reduction vs. Vehicle (EtOH consumed): P rats, 12 hr. The text has this: Free-Choice Ethanol Self-Administration in Alcohol-Preferring Rats: P Rats:
In this procedure (modified from Rodd-Henricks Z A, McKinzie D L, Shaikh S R, Murphy J M, McBride W J, Lumeng L and Li T K (2000) Alcohol deprivation effect is prolonged in the alcohol preferring (P) rat after repeated deprivations. Alcohol Clin Exp Res 24:8-16), female P rats are obtained from a private colony (Taconic, Germantown, N.Y.), individually-housed with food, 15% ethanol (v/v, in water), and water available ad libitum, and maintained on a 12 hr. light/dark cycle (lights off at 16:00). The chambers are equipped with a force transduction system (TSE Systems, Bad Homburg, Germany) attached to the ethanol, water, and food receptacles to enable continuous monitoring of food and liquid consumption. Rats voluntarily consume 15% ethanol with a mean daily intake of roughly 5 g/kg for several months prior to drug testing. Rats are treated orally with vehicle or test compounds in the dose range of 3, 10, or 30 mg/kg (3 mL/kg dose volume, dissolved in a vehicle consisting of 20% Captisol® in 25 mM phosphate buffer at pH=2), or naltrexone (10 mg/kg, 1 mL/kg dose volume, dissolved in water) immediately prior to the onset of the dark cycle, using a within-subjects, crossover design (3-4 day washout between subsequent doses). In a separate experiment, rats receive oral administration of vehicle followed by 4 daily oral doses of vehicle or 30 mg/kg test compound immediately prior to the onset of the dark cycle, using a between-subjects design.

In assay [2] the test system is Alcohol-Preferring (P) rats. The assay is described as follows: Operant ethanol self-administration in P rats (progressive ratio schedule). As to conditions: female P rats, 10 mg/kg oral. Type of assay: in vivo, rat. The text has this: Operant Self-Administration in P rats:
Female P rats are obtained and pair-housed from a private colony (Taconic, Germantown, N.Y.). In order to reduce novelty-induced avoidance of ethanol, the water bottle on the homecage is replaced with a bottle containing 15% ethanol in water (v/v, in water) for two days prior to operant training. Throughout the rest of the experiment, rats receive ad libitum access to water and standard laboratory chow, with no further access to ethanol in the homecage.
Rats are trained to press a lever for ethanol reinforcement in daily 30-min sessions conducted in standard rat operant chambers contained within sound-attenuating chambers (MED Associates, Inc., St. Albans, Vt.). The chambers consist of two stainless steel and two clear Plexiglas walls. The floor grid of the operant chambers consists of 0.5 cm diameter stainless steel bars placed approximately 1.5 cm apart. Each operant chamber contains two retractable operant levers located approximately 6 cm above the grid floor and 13 cm apart. A recessed trough is located in the space between the levers, through which a dipper cup (0.1 mL capacity) is raised to deliver response-contingent ethanol (15%, v/v, in water). Upon a reinforced response, a stimulus light is illuminated above the lever on which the response was made throughout the 4-sec dipper cup access. Operation of the stimuli and behavioral responses are controlled and recorded by personal computer for offline analysis (MED Associates, Inc., St. Albans, Vt.).
During operant training, responses on either lever are considered correct responses and are rewarded with 0.1 mL ethanol reinforcement. […] Once stable baseline responding is reached on an FR-1 schedule of reinforcement, the response contingency is increased to FR-2 and then again to FR-3 so that 3 lever presses are required for each reinforcement. […] Specifically, the response requirement is increased as follows: all rats begin each session at an FR-1 schedule of reinforcement; after three reinforcements, the schedule is increased to FR-2; after three reinforcements at that level, the schedule is increased by two to FR-4; after three reinforcements, the schedule is increased by two to FR-6; and so on (see for e.g. Oster S M, Toalston J E, Kuc K A, Pommer T J, Murphy J M, Lumeng L, Bell R L, McBride W J and Rodd Z A (2006) Effects of multiple alcohol deprivations on operant ethanol self-administration by high-alcohol-drinking replicate rat lines. Alcohol 38:155-164). Each session lasts a total of 30 min, after which, all stimuli are turned off and levers are retracted. […] The amount of ethanol consumed is calculated from the number of active lever presses, and converted into g/kg EtOH consumed. Rats receive oral administration of vehicle or test compound in the dose range of 3, 10, or 30 mg/kg (3 mL/kg dose volume, dissolved in a vehicle consisting of 20% Captisol® in 25 mM phosphate buffer at pH=2), or the nonselective opioid receptor antagonist naltrexone (10 mg/kg) as a positive control, 60 min. prior to the session, using a within-subjects, crossover design (3-4 day washout between subsequent doses). On a separate occasion, rats receive oral administration of vehicle or 30 mg/kg test compound (1 mL/kg dose volume, dissolved in a vehicle consisting of 20% Captisol® in 25 mM phosphate buffer), 30 min prior to the session, using a crossover design.

Where “and” joins values, the source holds several entries; their conditions need not be identical. Equal values may be shown once.

For `Cc1nn(-c2c(F)cccc2F)cc1CN1CCC2(CC1)OCC(F)(F)c1cc(Cl)sc12` [Compound 5, 2-chloro-1′-[[l-(2,6-difluorophenyl)-3-methyl-pyrazol-4-yl]methyl]-4,4-difluoro-spiro[5H-thieno[2,3-c]pyran-7,4′-piperidine]], the “Mean EtOH Consumed in g/kg (Drug-treated)” value is 4.39 g/kg in assay [1] (3 mg/kg oral), 4.05 g/kg in assay [1] (10 mg/kg oral) and 3.74 g/kg in assay [1] (30 mg/kg oral). For the same compound, the “Reduction vs. Vehicle (EtOH consumed)” value came out at 15.0% in assay [1] (3 mg/kg oral), 21.5% in assay [1] (10 mg/kg oral) and 27.6% in assay [1] (30 mg/kg oral). The ethanol self-administration result in assay [1] (free-choice access, P rats and msP rats, result in words) is “significantly reduce ethanol self-administration”.
Turning to `O=C1CC[C@@]2(O)[C@H]3Cc4ccc(O)c5c4[C@@]2(CCN3CC2CC2)[C@H]1O5` [naltrexone, reference compound], in assay [1] (10 mg/kg oral, 10 mg/kg), the “Mean EtOH Consumed in g/kg (Drug-treated)” value was 3.30 g/kg and 2.83 g/kg and 3.31 g/kg; the “Reduction vs. Vehicle (EtOH consumed)” value is 30.2% and 45.0% and 36.0%. Further, the “Reduction vs. Vehicle (lever presses)” value in assay [2] is 75.4%. Further, the “Mean Number of Lever Presses (Drug-treated)” value in assay [2] (30-min progressive ratio session) is 106.33.
